Test results reported in PubChem BioAssay (NCI).
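GI50 = concentration required for 50% inhibition of growth. TGI is the concentration that stops growth completely.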

How the values were obtained:
Assay in all cases: inhibition of tumour cell growth, NCI panel, 384-well format
SF-268 CNS = tested on: SF-268 CNS
SK-MEL-5 melanoma = tested on: SK-MEL-5 melanoma
OVCAR-4 ovarian = tested on: OVCAR-4 ovarian
MDA-MB-435 melanoma = tested on: MDA-MB-435 melanoma
SK-MEL-28 melanoma = tested on: SK-MEL-28 melanoma
MALME-3M melanoma = tested on: MALME-3M melanoma
MOLT-4 leukemia = tested on: MOLT-4 leukemia
MDA-MB-468 breast = tested on: MDA-MB-468 breast
HT29 colon = tested on: HT29 colon
RPMI-8226 leukemia = tested on: RPMI-8226 leukemia
HCC-2998 colon = tested on: HCC-2998 colon
ACHN renal = tested on: ACHN renal
SNB-75 CNS = tested on: SNB-75 CNS
OVCAR-8 ovarian = tested on: OVCAR-8 ovarian
SK-OV-3 ovarian = tested on: SK-OV-3 ovarian
T-47D breast = tested on: T-47D breast
HS 578T breast = tested on: HS 578T breast
DU-145 prostate = tested on: DU-145 prostate
HOP-62 NSCLC = tested on: HOP-62 NSCLC
HCT-116 colon = tested on: HCT-116 colon
CAKI-1 renal = tested on: CAKI-1 renal
OVCAR-5 ovarian = tested on: OVCAR-5 ovarian
SF-539 CNS = tested on: SF-539 CNS
NCI-H322M lung = tested on: NCI-H322M lung
IGROV1 ovarian = tested on: IGROV1 ovarian
NCI-H23 lung = tested on: NCI-H23 lung
SF-295 CNS = tested on: SF-295 CNS
MDA-MB-231 breast = tested on: MDA-MB-231 breast
PC-3 prostate = tested on: PC-3 prostate
A549 NSCLC = tested on: A549 NSCLC
NCI/ADR-RES ovarian = tested on: NCI/ADR-RES ovarian
COLO 205 colon = tested on: COLO 205 colon
HCT-15 colon = tested on: HCT-15 colon
UACC-62 melanoma = tested on: UACC-62 melanoma
KM12 colon = tested on: KM12 colon
SR leukemia = tested on: SR leukemia
EKVX NSCLC = tested on: EKVX NSCLC
M14 melanoma = tested on: M14 melanoma
SN12C renal = tested on: SN12C renal
TK-10 renal = tested on: TK-10 renal
SNB-19 CNS = tested on: SNB-19 CNS
A498 renal = tested on: A498 renal
MCF7 breast = tested on: MCF7 breast
UACC-257 melanoma = tested on: UACC-257 melanoma
RXF 393 renal = tested on: RXF 393 renal
OVCAR-3 ovarian = tested on: OVCAR-3 ovarian
U251 glioblastoma = tested on: U251 glioblastoma
LOX IMVI melanoma = tested on: LOX IMVI melanoma
HOP-92 NSCLC = tested on: HOP-92 NSCLC
NCI-H460 NSCLC = tested on: NCI-H460 NSCLC
HL-60(TB) leukemia = tested on: HL-60(TB) leukemia
NCI-H522 lung = tested on: NCI-H522 lung
BT-549 breast = tested on: BT-549 breast

SMILES: Nc1ccc(-c2ccc3ncc4ccc(=O)n(-c5cccc(C(F)(F)F)c5)c4c3c2)cn1
- GI50 (SF-268 CNS): 34.5 nM
- TGI (SF-268 CNS): 1140 nM
- GI50 (SK-MEL-5 melanoma): < 10 nM
- TGI (SK-MEL-5 melanoma): 24.5 nM
- GI50 (OVCAR-4 ovarian): < 10 nM
- TGI (OVCAR-4 ovarian): 38.9 nM
- GI50 (MDA-MB-435 melanoma): 10.2 nM
- TGI (MDA-MB-435 melanoma): 91.4 nM
- GI50 (SK-MEL-28 melanoma): 26 nM
- TGI (SK-MEL-28 melanoma): 14200 nM
- GI50 (MALME-3M melanoma): < 10 nM
- TGI (MALME-3M melanoma): 151 nM
- GI50 (MOLT-4 leukemia): < 10 nM
- TGI (MOLT-4 leukemia): 28.5 nM
- GI50 (MDA-MB-468 breast): < 10 nM
- TGI (MDA-MB-468 breast): 171 nM
- GI50 (HT29 colon): 45.6 nM
- TGI (HT29 colon): 1320 nM
- GI50 (RPMI-8226 leukemia): < 10 nM
- TGI (RPMI-8226 leukemia): < 10 nM
- GI50 (HCC-2998 colon): 10.5 nM
- TGI (HCC-2998 colon): 318 nM
- GI50 (ACHN renal): < 10 nM
- TGI (ACHN renal): 168 nM
- GI50 (SNB-75 CNS): < 10 nM
- TGI (SNB-75 CNS): 1150 nM
- GI50 (OVCAR-8 ovarian): 11.4 nM
- TGI (OVCAR-8 ovarian): 1370 nM
- GI50 (SK-OV-3 ovarian): < 10 nM
- TGI (SK-OV-3 ovarian): 1020 nM
- GI50 (T-47D breast): < 10 nM
- TGI (T-47D breast): 1310 nM
- GI50 (HS 578T breast): < 10 nM
- TGI (HS 578T breast): 50.8 nM
- GI50 (DU-145 prostate): < 10 nM
- TGI (DU-145 prostate): 378 nM
- GI50 (HOP-62 NSCLC): < 10 nM
- TGI (HOP-62 NSCLC): 46.3 nM
- GI50 (HCT-116 colon): 25.5 nM
- TGI (HCT-116 colon): 242 nM
- GI50 (CAKI-1 renal): 10.5 nM
- TGI (CAKI-1 renal): 1080 nM
- GI50 (OVCAR-5 ovarian): 13.4 nM
- TGI (OVCAR-5 ovarian): 67.3 nM
- GI50 (SF-539 CNS): < 10 nM
- TGI (SF-539 CNS): 389 nM
- GI50 (NCI-H322M lung): < 10 nM
- TGI (NCI-H322M lung): 46.9 nM
- GI50 (IGROV1 ovarian): < 10 nM
- TGI (IGROV1 ovarian): < 10 nM
- GI50 (NCI-H23 lung): 23.2 nM
- TGI (NCI-H23 lung): 400 nM
- GI50 (SF-295 CNS): < 10 nM
- TGI (SF-295 CNS): 196 nM
- GI50 (MDA-MB-231 breast): < 10 nM
- TGI (MDA-MB-231 breast): 12500 nM
- GI50 (PC-3 prostate): < 10 nM
- TGI (PC-3 prostate): 122 nM
- GI50 (A549 NSCLC): < 10 nM
- TGI (A549 NSCLC): 1070 nM
- GI50 (NCI/ADR-RES ovarian): 26.1 nM
- TGI (NCI/ADR-RES ovarian): 1070 nM
- GI50 (COLO 205 colon): 20.5 nM
- TGI (COLO 205 colon): 103 nM
- GI50 (HCT-15 colon): < 10 nM
- TGI (HCT-15 colon): 1080 nM
- GI50 (UACC-62 melanoma): < 10 nM
- TGI (UACC-62 melanoma): 565 nM
- GI50 (KM12 colon): < 10 nM
- TGI (KM12 colon): 2470 nM
- GI50 (SR leukemia): < 10 nM
- TGI (SR leukemia): < 10 nM
- GI50 (EKVX NSCLC): < 10 nM
- TGI (EKVX NSCLC): 62.9 nM
- GI50 (M14 melanoma): < 10 nM
- TGI (M14 melanoma): 136 nM
- GI50 (SN12C renal): < 10 nM
- TGI (SN12C renal): 86 nM
- GI50 (TK-10 renal): < 10 nM
- TGI (TK-10 renal): 40.2 nM
- GI50 (SNB-19 CNS): 52.3 nM
- TGI (SNB-19 CNS): 2380 nM
- GI50 (A498 renal): < 10 nM
- TGI (A498 renal): 13.2 nM
- GI50 (MCF7 breast): < 10 nM
- TGI (MCF7 breast): 2740 nM
- GI50 (UACC-257 melanoma): 25.5 nM
- TGI (UACC-257 melanoma): 199 nM
- GI50 (RXF 393 renal): 17.5 nM
- TGI (RXF 393 renal): 1400 nM
- GI50 (OVCAR-3 ovarian): < 10 nM
- TGI (OVCAR-3 ovarian): 293 nM
- GI50 (U251 glioblastoma): 30.1 nM
- TGI (U251 glioblastoma): 1190 nM
- GI50 (LOX IMVI melanoma): < 10 nM
- TGI (LOX IMVI melanoma): 33.4 nM
- GI50 (HOP-92 NSCLC): 26.1 nM
- TGI (HOP-92 NSCLC): 1000 nM
- GI50 (NCI-H460 NSCLC): < 10 nM
- TGI (NCI-H460 NSCLC): 71 nM
- GI50 (HL-60(TB) leukemia): 17.9 nM
- TGI (HL-60(TB) leukemia): 128 nM
- GI50 (NCI-H522 lung): < 10 nM
- TGI (NCI-H522 lung): 168 nM
- GI50 (BT-549 breast): < 10 nM
- TGI (BT-549 breast): 35.8 nM
